Assay results from paper PMC4912218, “Targeted metabolomics of Gammarus pulex following controlled exposures to selected pharmaceuticals in water” (The Science of the Total Environment, 2016).

Tested on: Gammarus pulex
Experiment: Targeted metabolite profiling (LC-HRMS) of G. pulex after exposure at NOAEL and LOAEL
Format: in vivo
Method: Approximately 100 specimens were introduced in a tank containing 1 L of AFW (control), 1 L of AFW spiked with C1 and 1 L of AFW with C2. At three different times (2, 6 and 24 h), 4 replicates of live G. pulex (a pool of 6–7 animals for each replicate) were collected, frozen on dry ice and then stored at − 80 °C before metabolite profiling was performed.
Quantification of pharmaceutical concentrations in G. pulex at the 24 h exposure interval was performed. Separate exposures were set up in triplicate in beakers containing 200 mL of exposure solution (AFW spiked with the respective C1 pharmaceutical dose) and 20 organisms. At 24 h, animals were immediately rinsed with ultra-pure water and then frozen at − 20 °C for 24 h. […] Prior to extraction, frozen G. pulex samples were lyophilised at − 50 °C under vacuum for 48 h and milled in an agate mortar to a fine powder. For each analysis, 20 mg of a lyophilised composite sample were transferred to 2 mL polypropylene tubes (Eppendorf®, Hamburg, Germany), for solid-liquid extraction (SLE). […] Then, samples were shaken for 25 min on a vibration plate (IKA® KS 260 basic) and centrifuged at 14,000 rpm for 25 min at 0 °C. Finally, the supernatant was transferred to a chromatographic vial by using a […] syringe filter (Whatman, GE Healthcare Life Sciences, Buckinghamshire, UK). All samples were stored at − 80 °C until LC-HRMS analysis.
Briefly, 50 mg of lyophilised G. pulex were extracted in 5 mL of acetonitrile and pre-concentrated on Oasis HLB SPE cartridges (6 mL, 200 mg sorbent). The extract was eluted, dried-down and reconstituted in starting LC mobile phase. […] Organic acids, nucleosides, nucleotides, sugars and AAs were measured using LC–HRMS. An Exactive™ mass spectrometer equipped with heated electrospray ionization (H-ESI) source was used (Thermo Fisher Scientific, Bremen, Germany). The system was equipped with a HTC PAL autosampler and a Surveyor MS Plus pump. A TSK Gel-Amide 80 column (2 × 250 mm, 5 μm) for analyte separation was purchased from Sigma Aldrich. Mobile phases were binary mixtures of acetonitrile (A) and 5 mM ammonium acetate (pH 5) in HPLC-grade water (B). […] The flow rate was set at 150 μL min^− 1 and the injection volume was 5 μL. […] Full scan acquisition over a mass range of 80–800 Da was performed at 70,000 full width at half maximum (FWHM) and spray voltage at 3.00 kV, capillary voltage at 30 V, skimmer voltage at 28 V and tube lens voltage at 130 V were used. A sheath gas flow rate of 45 arbitrary units (au), an auxiliary gas flow rate of 10 au and a capillary temperature at 300 °C were selected.
Here, pharmaceutical residue quantification in exposed G. pulex was performed by a 3-point matrix-matched calibration curve. […] The algal amino acid mixture-^13C,^15N (see Table 1) was used as internal standard (IS) for extraction and analytical control. L-ornithine hydrochloride, inosine, thymidine, taurine, 1.7-dimethylxanthine and (−)-riboflavin were quantified using either ^13C,^15N-proline or ^13C,^15N-tyrosine as the internal standard. The remaining 15 compounds were quantified using external calibration and the target compound itself was used as external standard. […] The method detection limit (MDL) was calculated following the same procedure, using spiked lyophilised G. pulex samples at a concentration of 1 μg g^− 1. Intra-assay variation was assessed using five consecutive injections of 5 ng μL^− 1 standard solution, and inter-assay variation was determined by measuring the same standard solution on four different days. […] Recovery studies were performed in triplicate, using lyophilised G. pulex samples spiked at 1 μg g^− 1 with the metabolites mixture and the algal amino acid mixture-^13C, ^15N.

## Oc1cc(Cl)ccc1Oc1ccc(Cl)cc1Cl [Triclosan]
2h, C1= 0.1 mg/L
  (-)-Riboflavin concentration in G. pulex: 2.6 ± 0.7 µg/g
  ADP concentration in G. pulex: 28.6 ± 2 µg/g
  Cytidine concentration in G. pulex: 34 ± 22 µg/g
  Hypoxanthine concentration in G. pulex: 123 ± 4 µg/g
  Inosine concentration in G. pulex: 14808 ± 1341 µg/g
  L-2-amino-n-butyric concentration in G. pulex: 15.1 ± 3 µg/g
  L-(-)-Proline concentration in G. pulex: 499 ± 11 µg/g
  L-Alanine concentration in G. pulex: 999 ± 2 µg/g
  L-Citrulline concentration in G. pulex: 9.7 ± 0.4 µg/g
  L-Isoleucine concentration in G. pulex: 2067 ± 110 µg/g
  L-Leucine concentration in G. pulex: 443 ± 1 µg/g
  L-Methionine concentration in G. pulex: 5.4 ± 0.6 µg/g
  L-Phenylalanine concentration in G. pulex: 340 ± 28 µg/g
  L-Serine concentration in G. pulex: 158 ± 7 µg/g
  L-Threonine concentration in G. pulex: 740 ± 6 µg/g
  L-Tryptophan concentration in G. pulex: 74 ± 20 µg/g
  L-Tyrosine concentration in G. pulex: 247 ± 8 µg/g
  L-Valine concentration in G. pulex: 500 ± 1 µg/g
  L-aspartic acid concentration in G. pulex: 62.6 ± 3 µg/g
  NADH concentration in G. pulex: 7.11 ± 0.1 µg/g
  Taurine concentration in G. pulex: 7300 ± 168 µg/g
  Thymidine concentration in G. pulex: 2918 ± 603 µg/g
  Trehalose concentration in G. pulex: 197 ± 1 µg/g
  Uridine concentration in G. pulex: 699 ± 21 µg/g
2h, C2= 0.3 mg/L
  (-)-Riboflavin concentration in G. pulex: 2.4 ± 0.5 µg/g
  ADP concentration in G. pulex: 30.5 ± 0.2 µg/g
  Cytidine concentration in G. pulex: 15 ± 6 µg/g
  Hypoxanthine concentration in G. pulex: 74 ± 22 µg/g
  Inosine concentration in G. pulex: 20640 ± 179 µg/g
  L-2-amino-n-butyric concentration in G. pulex: 17.0 ± 2 µg/g
  L-(-)-Proline concentration in G. pulex: 313 ± 1 µg/g
  L-Alanine concentration in G. pulex: 827 ± 10 µg/g
  L-Citrulline concentration in G. pulex: 14.6 ± 0.4 µg/g
  L-Isoleucine concentration in G. pulex: 1140 ± 38 µg/g
  L-Leucine concentration in G. pulex: 361 ± 17 µg/g
  L-Methionine concentration in G. pulex: 3.8 ± 0.6 µg/g
  L-Phenylalanine concentration in G. pulex: 200 ± 15 µg/g
  L-Serine concentration in G. pulex: 158 ± 7 µg/g
  L-Threonine concentration in G. pulex: 530 ± 7 µg/g
  L-Tryptophan concentration in G. pulex: 142 ± 7 µg/g
  L-Tyrosine concentration in G. pulex: 216 ± 5 µg/g
  L-Valine concentration in G. pulex: 268 ± 1 µg/g
  L-aspartic acid concentration in G. pulex: 60.5 ± 3 µg/g
  NADH concentration in G. pulex: 9.3 ± 0.2 µg/g
  Taurine concentration in G. pulex: 7645 ± 212 µg/g
  Thymidine concentration in G. pulex: 639 ± 140 µg/g
  Trehalose concentration in G. pulex: 272 ± 10 µg/g
  Uridine concentration in G. pulex: 506 ± 66 µg/g
6h, C1= 0.1 mg/L
  (-)-Riboflavin concentration in G. pulex: 3.4 ± 3 µg/g
  ADP concentration in G. pulex: 18.6 ± 3 µg/g
  Cytidine concentration in G. pulex: 66 ± 21 µg/g
  Hypoxanthine concentration in G. pulex: 154 ± 27 µg/g
  Inosine concentration in G. pulex: 18116 ± 26 µg/g
  L-2-amino-n-butyric concentration in G. pulex: 21.1 ± 4 µg/g
  L-(-)-Proline concentration in G. pulex: 462 ± 5 µg/g
  L-Alanine concentration in G. pulex: 1119 ± 48 µg/g
  L-Citrulline concentration in G. pulex: 9.0 ± 0.9 µg/g
  L-Isoleucine concentration in G. pulex: 2685 ± 88 µg/g
  L-Leucine concentration in G. pulex: 459 ± 4 µg/g
  L-Methionine concentration in G. pulex: 5.0 ± 0.5 µg/g
  L-Phenylalanine concentration in G. pulex: 417 ± 5 µg/g
  L-Serine concentration in G. pulex: 179 ± 13 µg/g
  L-Threonine concentration in G. pulex: 787 ± 22 µg/g
  L-Tryptophan concentration in G. pulex: 97 ± 16 µg/g
  L-Tyrosine concentration in G. pulex: 301 ± 1 µg/g
  L-Valine concentration in G. pulex: 601 ± 9 µg/g
  L-aspartic acid concentration in G. pulex: 43.2 ± 2 µg/g
  NADH concentration in G. pulex: 7.7 ± 1 µg/g
  Taurine concentration in G. pulex: 10516 ± 434 µg/g
  Thymidine concentration in G. pulex: 3697 ± 180 µg/g
  Trehalose concentration in G. pulex: 259 ± 8 µg/g
  Uridine concentration in G. pulex: 723 ± 21 µg/g
6h, C2= 0.3 mg/L
  (-)-Riboflavin concentration in G. pulex: 2.6 ± 0.3 µg/g
  ADP concentration in G. pulex: 28.2 ± 0.3 µg/g
  Cytidine concentration in G. pulex: 19 ± 7 µg/g
  Hypoxanthine concentration in G. pulex: 74 ± 18 µg/g
  Inosine concentration in G. pulex: 23098 ± 627 µg/g
  L-2-amino-n-butyric concentration in G. pulex: 19.8 ± 2 µg/g
  L-(-)-Proline concentration in G. pulex: 246 ± 4 µg/g
  L-Alanine concentration in G. pulex: 784 ± 31 µg/g
  L-Citrulline concentration in G. pulex: 12.3 ± 1 µg/g
  L-Isoleucine concentration in G. pulex: 1561 ± 147 µg/g
  L-Leucine concentration in G. pulex: 353 ± 4 µg/g
  L-Methionine concentration in G. pulex: 4.6 ± 0.8 µg/g
  L-Phenylalanine concentration in G. pulex: 233 ± 5 µg/g
  L-Serine concentration in G. pulex: 168 ± 2 µg/g
  L-Threonine concentration in G. pulex: 486 ± 8 µg/g
  L-Tryptophan concentration in G. pulex: 134 ± 10 µg/g
  L-Tyrosine concentration in G. pulex: 234 ± 2 µg/g
  L-Valine concentration in G. pulex: 299 ± 18 µg/g
  L-aspartic acid concentration in G. pulex: 36.1 ± 6 µg/g
  NADH concentration in G. pulex: 8.1 ± 0.8 µg/g
  Taurine concentration in G. pulex: 8484 ± 60 µg/g
  Thymidine concentration in G. pulex: 1163 ± 130 µg/g
  Trehalose concentration in G. pulex: 251 ± 4 µg/g
  Uridine concentration in G. pulex: 533 ± 28 µg/g
24h, C1= 0.1 mg/L
  (-)-Riboflavin concentration in G. pulex: 2.4 ± 2 µg/g
  ADP concentration in G. pulex: 18.7 ± 1 µg/g
  Cytidine concentration in G. pulex: 19 ± 3 µg/g
  Hypoxanthine concentration in G. pulex: 95 ± 27 µg/g
  Inosine concentration in G. pulex: 18957 ± 5084 µg/g
  L-2-amino-n-butyric concentration in G. pulex: 16.8 ± 5 µg/g
  L-(-)-Proline concentration in G. pulex: 293 ± 13 µg/g
  L-Alanine concentration in G. pulex: 810 ± 110 µg/g
  L-Citrulline concentration in G. pulex: 8.3 ± 0.5 µg/g
  L-Isoleucine concentration in G. pulex: 1743 ± 224 µg/g
  L-Leucine concentration in G. pulex: 376 ± 13 µg/g
  L-Methionine concentration in G. pulex: 7.0 ± 0.3 µg/g
  L-Phenylalanine concentration in G. pulex: 260 ± 6 µg/g
  L-Serine concentration in G. pulex: 120 ± 12 µg/g
  L-Threonine concentration in G. pulex: 600 ± 20 µg/g
  L-Tryptophan concentration in G. pulex: 72 ± 8 µg/g
  L-Tyrosine concentration in G. pulex: 307 ± 4 µg/g
  L-Valine concentration in G. pulex: 398 ± 17 µg/g
  L-aspartic acid concentration in G. pulex: 82.5 ± 26 µg/g
  NADH concentration in G. pulex: 7.7 ± 0.1 µg/g
  Taurine concentration in G. pulex: 12433 ± 2122 µg/g
  Thymidine concentration in G. pulex: 1718 ± 19 µg/g
  Trehalose concentration in G. pulex: 251 ± 22 µg/g
  Uridine concentration in G. pulex: 644 ± 77 µg/g
24h, C2= 0.3 mg/L
  (-)-Riboflavin concentration in G. pulex: 2.6 ± 0.8 µg/g
  ADP concentration in G. pulex: 29.3 ± 0.8 µg/g
  Cytidine concentration in G. pulex: 16 ± 3 µg/g
  Hypoxanthine concentration in G. pulex: 53 ± 10 µg/g
  Inosine concentration in G. pulex: 36017 ± 80 µg/g
  L-2-amino-n-butyric concentration in G. pulex: 21.5 ± 2 µg/g
  L-(-)-Proline concentration in G. pulex: 207 ± 3 µg/g
  L-Alanine concentration in G. pulex: 673 ± 17 µg/g
  L-Citrulline concentration in G. pulex: 13.8 ± 2 µg/g
  L-Isoleucine concentration in G. pulex: 1164 ± 39 µg/g
  L-Leucine concentration in G. pulex: 299 ± 0.7 µg/g
  L-Methionine concentration in G. pulex: 3.1 ± 0.9 µg/g
  L-Phenylalanine concentration in G. pulex: 134 ± 0.5 µg/g
  L-Serine concentration in G. pulex: 167 ± 15 µg/g
  L-Threonine concentration in G. pulex: 440 ± 11 µg/g
  L-Tryptophan concentration in G. pulex: 115 ± 8 µg/g
  L-Tyrosine concentration in G. pulex: 224 ± 1 µg/g
  L-Valine concentration in G. pulex: 250 ± 3 µg/g
  L-aspartic acid concentration in G. pulex: 33.9 ± 11 µg/g
  NADH concentration in G. pulex: 9.9 ± 0.3 µg/g
  Taurine concentration in G. pulex: 8468 ± 142 µg/g
  Thymidine concentration in G. pulex: 396 ± 12 µg/g
  Trehalose concentration in G. pulex: 378 ± 17 µg/g
  Uridine concentration in G. pulex: 574 ± 15 µg/g
